From patent US20230265116A1, “DEGRADATION OF (EGFR) BY CONJUGATION OF EGFR INHIBITORS WITH E3 LIGASE LIGAND AND METHODS OF USE” (BEIGENE, LTD., priority 2020, published 2023) come the findings set out here.

One assay concerns the target T1, EGFR (HCC827 cells) (Homo sapiens, UniProt P00533, DEL746-750).
T1 construct: endogenous in cells; host or cells: HCC827
The experiment in a line: EGFR degradation HTRF assay, HCC827 cells. The class given is cell-based. Conditions: HCC827, 16h treatment; for Dmax: maximum percentage of degradation. In short, it runs like this: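 BaF3 (WT, Del19/T790M/C797S) and HCC827 cells exposed 16 h at 37 °C, 5% CO2 to compounds in 0.2% DMSO medium, 8 doses from 10 uM top, 5-fold steps. Lysates read by HTRF (665/620 nm); degradation % vs DMSO control, DC50 from four-parameter fit, Dmax as maximal degradation.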
For orientation: Time-resolved FRET reads energy transfer from a long-lived donor to a nearby acceptor.

The target of assay [1] is T2, EGFR L858R/T790M (H1975-clone #36, homozygous) (Homo sapiens, UniProt P00533, L858R/T790M).
T2 construct: designed to specifically target WT EGFR but preserve the L858R/T790M copy; host or cells: H1975-clone #36
Kind of assay: EGFR degradation HTRF assay, H1975-clone #36 cells. In kind it is cell-based. Conditions: H1975 #36, 16h treatment; for Dmax: NCI-H1975, maximum percentage of degradation. The procedure:
H1975-clone #36(L858R/T790M). H1975 cell heterozygously (from ATCC) contains alleles of WT and L858R/T790M EGFR. H1975-clone #36(L858R/T790M) was generated by gene knockout, in which the EGFR targeting sgRNA was designed to specifically target WT EGFR but preserve the L858R/T790M copy. Followed by the gene knockout, the edited H1975 cells were seeded in 96 well plates at the concentration of 1 cell/well, cultured for about 2 weeks to allow single clones formation. The formed clones were screened by DNA sequencing for the desired edition. H1975-clone #36 was confirmed as a homozygous L858R/T790M EGFR clone.
BaF3 WT(wild type), BaF3-LTC(L858R/T790M/C797S) and BaF3-DTC(Del19/T790M/C797S) cells are treated with compounds diluted in 0.2% DMSO cell culture medium and incubate for 16h, 37° C., 5% CO2, H1975-#36, H1975-#28, H1975-#23 and HCC827 cells are treated with compounds diluted in 0.2% DMSO cell culture medium on day 2, incubate for 16h, 37° C., 5% CO2.the final concentriation of compounds in all assay is start with 10 uM, 5-fold dilution, total 8 doses were included.
After 16h treatment, add HTRF lysis buffer to each well; seal the plate and incubate 1 hour at room temperature on a plate shaker; Once the cells are lysed, 16 μL of cell lysate are transferred to a PE 384-well HTRF detection plate; 4 μL of pre-mixed HTRF antibodies are added to each well; Cover the plate with a plate sealer, spin 1000 rpm for 1 min, Incubate overnight at room temperature; Read on BMG PheraStar with HTRF protocol (337 nm-665 nm-620 nm).
The inhibition (degradation) percentage of the compound was calculated by the following equation: Inhibition percentage of Compound=100-100×(Signal-low control)/(High control-low control), wherein signal=each test compound group
High control=Cell group with added DMSO and without compound, indicating microplate readings without EGFR degradation;
Dmax is the maximum percentage of inhibition (degradation).
The IC50 (DC50) value of a compound can be obtained by fitting the following equation
Y=Bottom+(TOP−Bottom)/(1+((IC50/X)^hillslope))
Wherein, X and Y are known values, and IC50, Hillslope, Top and Bottom are the parameters obtained by fitting with software. Y is the inhibition percentage (calculated from the equation), X is the concentration of the compound; IC50 is the concentration of the compound when the 50% inhibition is reached. The smaller the IC50 value is, the stronger the inhibitory ability of the compound is. Vice versa, the higher the IC50 value is, the weaker the inhibitory ability of the compound is; Hillslope represents the slope of the fitted curve, generally around 1*; Bottom represents the minimum value of the curve obtained by data fitting, which is generally 0%±20%; Top represents the maximum value of the curve obtained by data fitting, which is generally 100%±20%. The experimental data were fitted by calculating and analyzing with Dotmatics data analysis software.

T2 sequence (P00533 25-1210 T790M/L858R): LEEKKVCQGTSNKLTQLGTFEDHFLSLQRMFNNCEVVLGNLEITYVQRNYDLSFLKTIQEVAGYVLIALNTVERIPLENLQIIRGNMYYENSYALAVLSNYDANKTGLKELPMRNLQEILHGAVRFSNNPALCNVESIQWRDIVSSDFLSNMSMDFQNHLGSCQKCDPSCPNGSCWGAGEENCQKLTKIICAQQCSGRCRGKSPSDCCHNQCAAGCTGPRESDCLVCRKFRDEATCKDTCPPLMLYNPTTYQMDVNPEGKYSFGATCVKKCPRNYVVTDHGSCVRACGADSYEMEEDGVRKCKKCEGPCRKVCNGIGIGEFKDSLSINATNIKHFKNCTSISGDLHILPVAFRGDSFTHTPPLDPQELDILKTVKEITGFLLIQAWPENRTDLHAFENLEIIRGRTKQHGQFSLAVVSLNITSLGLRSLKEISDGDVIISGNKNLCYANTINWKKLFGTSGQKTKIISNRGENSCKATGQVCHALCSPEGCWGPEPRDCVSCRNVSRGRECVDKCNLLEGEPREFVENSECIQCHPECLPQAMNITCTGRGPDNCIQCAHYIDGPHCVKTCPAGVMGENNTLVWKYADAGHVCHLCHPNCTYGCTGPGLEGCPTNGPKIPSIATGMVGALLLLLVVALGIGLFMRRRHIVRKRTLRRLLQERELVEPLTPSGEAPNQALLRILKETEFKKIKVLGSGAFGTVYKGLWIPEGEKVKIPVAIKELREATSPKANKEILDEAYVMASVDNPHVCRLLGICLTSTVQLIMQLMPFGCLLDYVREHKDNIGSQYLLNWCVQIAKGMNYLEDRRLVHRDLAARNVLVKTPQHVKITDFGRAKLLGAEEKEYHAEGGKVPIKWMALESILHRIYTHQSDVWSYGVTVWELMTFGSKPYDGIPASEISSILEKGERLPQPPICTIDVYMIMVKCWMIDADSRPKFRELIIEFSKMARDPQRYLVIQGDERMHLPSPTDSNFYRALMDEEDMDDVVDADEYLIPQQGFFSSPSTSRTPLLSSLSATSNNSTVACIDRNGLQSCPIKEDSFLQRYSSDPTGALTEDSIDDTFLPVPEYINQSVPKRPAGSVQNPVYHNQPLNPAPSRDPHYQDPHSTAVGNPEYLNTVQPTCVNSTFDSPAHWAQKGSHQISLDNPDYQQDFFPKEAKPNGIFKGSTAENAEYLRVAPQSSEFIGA
T1 sequence (P00533 with tags, fused parts or gaps DEL746-750): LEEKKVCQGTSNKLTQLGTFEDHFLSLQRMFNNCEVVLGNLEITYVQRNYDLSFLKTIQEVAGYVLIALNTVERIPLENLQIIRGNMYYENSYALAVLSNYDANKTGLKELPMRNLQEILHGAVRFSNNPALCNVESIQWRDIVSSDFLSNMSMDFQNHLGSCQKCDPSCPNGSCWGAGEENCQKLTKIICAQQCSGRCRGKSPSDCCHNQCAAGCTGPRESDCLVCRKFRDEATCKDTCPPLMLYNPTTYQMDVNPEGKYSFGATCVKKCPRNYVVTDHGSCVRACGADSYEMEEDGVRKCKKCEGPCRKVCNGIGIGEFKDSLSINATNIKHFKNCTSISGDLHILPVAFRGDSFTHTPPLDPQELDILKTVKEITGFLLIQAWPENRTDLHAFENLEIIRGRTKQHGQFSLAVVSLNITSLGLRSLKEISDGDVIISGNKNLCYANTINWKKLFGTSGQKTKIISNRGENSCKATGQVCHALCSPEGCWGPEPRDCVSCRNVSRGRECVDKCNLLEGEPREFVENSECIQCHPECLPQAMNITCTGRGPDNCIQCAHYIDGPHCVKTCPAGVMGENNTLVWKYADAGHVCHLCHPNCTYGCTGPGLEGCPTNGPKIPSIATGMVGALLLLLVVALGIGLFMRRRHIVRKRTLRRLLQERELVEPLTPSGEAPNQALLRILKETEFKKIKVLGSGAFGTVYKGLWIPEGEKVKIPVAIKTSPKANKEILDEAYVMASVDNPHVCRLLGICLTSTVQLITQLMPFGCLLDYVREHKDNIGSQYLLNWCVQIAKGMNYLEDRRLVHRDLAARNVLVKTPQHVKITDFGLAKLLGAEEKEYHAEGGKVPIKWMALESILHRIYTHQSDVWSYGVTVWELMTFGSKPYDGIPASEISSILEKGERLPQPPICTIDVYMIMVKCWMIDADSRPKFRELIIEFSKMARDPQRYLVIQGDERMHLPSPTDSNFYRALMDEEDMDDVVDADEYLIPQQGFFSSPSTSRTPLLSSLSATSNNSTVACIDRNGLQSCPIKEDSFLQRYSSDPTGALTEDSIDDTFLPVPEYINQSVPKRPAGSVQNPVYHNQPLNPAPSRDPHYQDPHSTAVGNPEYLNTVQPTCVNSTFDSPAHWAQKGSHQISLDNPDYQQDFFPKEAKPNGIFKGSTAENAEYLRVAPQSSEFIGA

For the compound `COc1cc(N2CCN(CC3CCN(c4ccc(N5CCC(=O)NC5=O)cc4)CC3)CC2)c(C)cc1Nc1ncc(Br)c(Nc2ccc3nccnc3c2P(C)(C)=O)n1` [Example 95, 1-(4-(4-((4-(4-((5-bromo-4-((5-(dimethylphosphoryl)quinoxalin-6-yl)amino)pyrimidin-2-yl)amino)-5-methoxy-2-methylphenyl)piperazin-1-yl)methyl)piperidin-1-yl)phenyl)dihydropyrimidine-2,4(1H,3H)-dione], the half-maximal degradation concentration (DC50) (in general, the midpoint of the concentration-degradation curve) at EGFR (HCC827 cells) came to 147 nM; in assay [1], 9030 nM. Besides, the Dmax (commonly the greatest extent of degradation seen) at EGFR (HCC827 cells) was 71.3%; in assay [1] it was 61.6%.

On EGFR (HCC827 cells), `COc1cc(N2CCC(N(C)CC3CCN(c4ccc(N5CCC(=O)NC5=O)c(C)c4)CC3)CC2)c(C)cc1Nc1ncc(Br)c(Nc2ccc3nccnc3c2P(C)(C)=O)n1` [Example 83, 1-(4-(4-(((1-(4-((5-bromo-4-((5-(dimethylphosphoryl)quinoxalin-6-yl)amino)pyrimidin-2-yl)amino)-5-methoxy-2-methylphenyl)piperidin-4-yl)(methyl)amino)methyl)piperidin-1-yl)-2-methylphenyl)dihydropyrimidine-2,4(1H,3H)-dione] returned a DC50 of 20.3 nM and a Dmax of 74.2%. In assay [1], the half-maximal degradation concentration (DC50) is above 10000 nM and the Dmax was 14.7%.

At EGFR (HCC827 cells), `COc1cc(N2CCC(N3CCN(CCc4ccc(NC5CCC(=O)NC5=O)cc4)CC3)CC2)ccc1Nc1ncc(Cl)c(Nc2ccccc2N(C)S(C)(=O)=O)n1` (stereo not drawn) [Example 126, N-(2-((5-chloro-2-((4-(4-(4-(4-((2,6-dioxopiperidin-3-yl)amino)phenethyl)piperazin-1-yl)piperidin-1-yl)-2-methoxyphenyl)amino)pyrimidin-4-yl)amino)phenyl)-N-methylmethanesulfonamide] had a half-maximal degradation concentration (DC50) of 19.1 nM and a Dmax of 84%. Besides, in assay [1], it took 2.61 nM to reach half-maximal degradation (DC50) and the Dmax came to 83.9%.

For the compound `COc1cc(N2CCC(N3CCN(C(=O)C[C@H](NC(=O)[C@@H]4C[C@@H](O)CN4C(=O)[C@@H](c4cc(C)no4)C(C)C)c4ccc(-c5scnc5C)cc4)CC3)CC2)ccc1Nc1ncc(Cl)c(Nc2ccccc2P(C)(C)=O)n1` [Example 117, (2S,4R)—N—((S)-3-(4-(1-(4-((5-chloro-4-((2-(dimethylphosphoryl)phenyl)amino)pyrimidin-2-yl)amino)-3-methoxyphenyl)piperidin-4-yl)piperazin-1-yl)-1-(4-(4-methylthiazol-5-yl)phenyl)-3-oxopropyl)-4-hydroxy-1-((R)-3-methyl-2-(3-methylisoxazol-5-yl)butanoyl)pyrrolidine-2-carboxamide], on EGFR (HCC827 cells), the DC50 is 17 nM and the Dmax is 76.2%. Also, in assay [1], half-maximal degradation (DC50) was put at 67.4 nM and the maximal degradation (Dmax) was 86.7%.

Take `COc1cc(N2CCN(CC3CCN(c4ccc(C5CCC(=O)NC5=O)cc4)CC3)CC2)c(C)cc1Nc1ncc(Br)c(Nc2ccc3nccnc3c2P(C)(C)=O)n1` (stereo not drawn) [Example 88, 3-(4-(4-((4-(4-((5-bromo-4-((5-(dimethylphosphoryl)quinoxalin-6-yl)amino)pyrimidin-2-yl)amino)-5-methoxy-2-methylphenyl)piperazin-1-yl)methyl)piperidin-1-yl)phenyl)piperidine-2,6-dione]: the results for the DC50 (on EGFR (HCC827 cells); in assay [1]) were 21.9 nM and 3.54 nM, respectively. Moreover, the maximal degradation (Dmax) on EGFR (HCC827 cells) stood at 68.7%; in assay [1], 54.5%.

Consider `CCc1cc(Nc2ncc(Br)c(Nc3ccc4nccnc4c3P(C)(C)=O)n2)c(OC)cc1N1CCC(N2CCN(CCc3ccc(C4CCC(=O)NC4=O)cn3)CC2)CC1` (stereo not drawn) [Example 13, 3-(6-(2-(4-(1-(4-((5-bromo-4-((5-(dimethylphosphoryl)quinoxalin-6-yl)amino)pyrimidin-2-yl)amino)-2-ethyl-5-methoxyphenyl)piperidin-4-yl)piperazin-1-yl)ethyl)pyridin-3-yl)piperidine-2,6-dione], for which, at EGFR (HCC827 cells), the 50% degradation concentration (DC50) turned out to be 9.48 nM and the Dmax amounted to 78.9%. In assay [1], the DC50 was above 10000 nM and the Dmax came to 42.8%.

On to `COc1cc(N2CCC(N3CCN(CCc4ccc(NC5CCC(=O)NC5=O)cc4)CC3)CC2)ccc1Nc1ncc(Cl)c(Nc2ccccc2NS(C)(=O)=O)n1` (stereo not drawn) [Example 140, N-(2-((5-chloro-2-((4-(4-(4-(4-((2,6-dioxopiperidin-3-yl)amino)phenethyl)piperazin-1-yl)piperidin-1-yl)-2-methoxyphenyl)amino)pyrimidin-4-yl)amino)phenyl)methanesulfonamide], for which the 50% degradation concentration (DC50) was 8.56 nM at EGFR (HCC827 cells) and 5.24 nM in assay [1]. Also, the greatest degradation seen (Dmax) was found to be 88.9% at EGFR (HCC827 cells) and 73.3% in assay [1].

For `CCc1cc(Nc2ncc(Br)c(Nc3ccc4nccnc4c3P(C)(C)=O)n2)c(OC)cc1N1CCC(N2CCN(CCC3CN(c4ccc5c(c4)C(=O)N(C4CCC(=O)NC4=O)C5=O)C3)CC2)CC1` (stereo not drawn) [Example 58, 5-(3-(2-(4-(1-(4-((5-bromo-4-((5-(dimethylphosphoryl)quinoxalin-6-yl)amino)pyrimidin-2-yl)amino)-2-ethyl-5-methoxyphenyl)piperidin-4-yl)piperazin-1-yl)ethyl)azetidin-1-yl)-2-(2,6-dioxopiperidin-3-yl)isoindoline-1,3-dione], on EGFR (HCC827 cells), the DC50 amounted to 5.45 nM and the Dmax was 78.5%. Besides, in assay [1], the DC50 was 3.9 nM and the Dmax was determined as 88.5%.

On EGFR (HCC827 cells), `COc1cc(N2CCC(N3CCN(CCC4CCN(c5ccc(C6CCC(=O)NC6=O)cc5)CC4)CC3)CC2)ccc1Nc1ncc(Cl)c(Nc2ccccc2P(C)(C)=O)n1` (stereo not drawn) [Example 106, 3-(4-(4-(2-(4-(1-(4-((5-chloro-4-((2-(dimethylphosphoryl)phenyl)amino)pyrimidin-2-yl)amino)-3-methoxyphenyl)piperidin-4-yl)piperazin-1-yl)ethyl)piperidin-1-yl)phenyl)piperidine-2,6-dione] had a DC50 of 7.06 nM and a Dmax of 63.2%. In assay [1], this compound yielded a 50% degradation concentration (DC50) of 8.32 nM and a Dmax of 63%.

Turning to `CCc1cc(Nc2ncc(Br)c(Nc3ccc4nccnc4c3P(C)(C)=O)n2)c(OC)cc1N1CCC(N2CCN(C(=O)CC3CCN(c4ccc(C5CCC(=O)NC5=O)cc4)CC3)CC2)CC1` (stereo not drawn) [Example 24, 3-(4-(4-(2-(4-(1-(4-((5-bromo-4-((5-(dimethylphosphoryl)quinoxalin-6-yl)amino)pyrimidin-2-yl)amino)-2-ethyl-5-methoxyphenyl)piperidin-4-yl)piperazin-1-yl)-2-oxoethyl)piperidin-1-yl)phenyl)piperidine-2,6-dione], the DC50 at EGFR (HCC827 cells) is 6.59 nM; in assay [1], 5.72 nM. Moreover, the greatest degradation seen (Dmax) on EGFR (HCC827 cells) is 74.7%; in assay [1], 65.5%.

`COc1cc(N2CCC(N3CCN(CCc4ccc(C5CCC(=O)NC5=O)cc4)CC3)CC2)ccc1Nc1ncc(Cl)c(Nc2ccccc2P(C)(C)=O)n1` (stereo not drawn) [Example 104, 3-(4-(2-(4-(1-(4-((5-chloro-4-((2-(dimethylphosphoryl)phenyl)amino)pyrimidin-2-yl)amino)-3-methoxyphenyl)piperidin-4-yl)piperazin-1-yl)ethyl)phenyl)piperidine-2,6-dione]: at EGFR (HCC827 cells), the DC50 was 17.7 nM and the Dmax is 83.4%. In assay [1], the DC50 stood at 5.89 nM and the Dmax was determined as 74.7%.

As to `CCc1cc(Nc2ncc(Br)c(Nc3ccc4nccnc4c3P(C)(C)=O)n2)c(OC)cc1N1CCC(N2CCN(CCc3ccc(C4CCC(=O)NC4=O)c(OC)c3)CC2)CC1` (stereo not drawn) [Example 2, 3-(4-(2-(4-(1-(4-((5-bromo-4-((5-(dimethylphosphoryl)quinoxalin-6-yl)amino)pyrimidin-2-yl)amino)-2-ethyl-5-methoxyphenyl)piperidin-4-yl)piperazin-1-yl)ethyl)-2-methoxyphenyl)piperidine-2,6-dione], at EGFR (HCC827 cells), the half-maximal degradation concentration (DC50) is 18 nM and the Dmax stood at 78.5%. In assay [1], this compound came in with a DC50 of 3720 nM and a maximal degradation (Dmax) of 53.6%.
